Measured values: paper PMC9679992, “Fusicoccin-A Targets Cancerous Inhibitor of Protein Phosphatase 2A by Stabilizing a C-Terminal Interaction with 14-3-3” (ACS Chemical Biology, 2022)
pEC50: −log10 of the molar value. Like-named read-outs stand apart in the source and are kept apart here. Peptide text beside a SMILES is read from it. * marks the point of attachment. Cbz = O=C(OCc1ccccc1)*

Legend:
GST-14-3-3η / CIP2A = assay: GST-14-3-3η pulldown of CIP2A, MDA-MB-468 cell lysates; type: binding; settings: lysate preincubated with 200 μM ATP, 10 mM MgCl2, 1 hour 37 °C
Experimental: (§1) (A) Cartoon showing FC-A coupled to magnetic hydrazide beads. (B) Western blot showing the results of an FC-beads pulldown experiment in MDA-MB-468 cell lysates. (C) Western blot of the GST14-3-3η pulldown of CIP2A in MDA-MB-468 cell lysates. […] (D) Western blot of MDA-MB-468 cell lysates after treatment of cells with 30 μM FC-A or a vehicle control for 24 h before harvest. Quantification was performed after normalization to an actin loading control. […] Membrane was probed with our custom CIP2A pS904, C-terminal CIP2A, and actin antibodies. (E) Western blot of GST14-3-3η pulldown of CIP2A in MDA-MB-468 cell lysates from cells either treated with 30 μM FC-A or a vehicle control for 24 h before harvest. Representative Western blots are shown of three (B–D) or two (E) independent experiments.

GST-14-3-3η = molecular target: T1, GST-14-3-3η (Homo sapiens, UniProt Q04917); assay: Fluorescent polarization, GST14-3-3η titrated to FAM-pCIP2A peptide; type: binding, Hs; settings: FP, GST14-3-3η titrated to 100 nM FAM peptide, PBS pH 7.5, RT, 30 min
T1 construct: made in house; host or cells: Rosetta 2 (DE3)pLysS E. coli
T1 sequence (Q04917 1-246): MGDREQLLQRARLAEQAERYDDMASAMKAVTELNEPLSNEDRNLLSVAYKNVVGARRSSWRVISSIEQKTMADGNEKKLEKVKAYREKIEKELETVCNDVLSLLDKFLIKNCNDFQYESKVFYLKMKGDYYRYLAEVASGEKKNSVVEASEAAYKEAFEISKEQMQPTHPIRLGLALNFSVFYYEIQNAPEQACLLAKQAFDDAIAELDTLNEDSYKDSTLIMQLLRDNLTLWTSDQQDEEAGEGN
Experimental: Data is shown as mean ± SEM of three independent experiments. (E) Fluorescent polarization GST14-3-3η concentration–response curves generated in the presence of 10 μM FC-A or buffer using 100 nM of peptide 3. (F) Fluorescent polarization concentration–response curve of FC-A stabilizing the interaction between 1.5 μM GST14-3-3η and 100 nM peptide 3. Data is presented as the mean ± SEM of three independent experiments.
First, concentration–response curves were made using peptide 3, which was N-terminally labeled with fluorescein and in which Ser904 is phosphorylated by titrating to N-terminally GST-tagged 14-3-3η (GST-14-3-3η) at a fixed concentration of FC-A (10 μM) or a buffer control.
peptide was dissolved in phosphate saline buffer (PBS) with a pH of 7.5. Concentration curves of recombinant GST-14-3-3η were produced by mixing various concentrations of the protein diluted in assay buffer (PBS, pH=7.5) with a fixed 100 nM of the FAM labelled peptide and either a DMSO vehicle control or a fixed 10 μM Fusicoccin – A (FC-A). FC-A concentration curves were generated by mixing various concentrations of FC-A diluted in PBS with a fixed 100 nM of FAM - CIP2A and a fixed 4.7 μM of GST-14-3-3η. […]

[1] = system: cancer cells, including breast cancer; settings: FC-A and its derivatives; cited from earlier work
Description: It has been shown that polo-like kinase 1 (PLK1) can bind to the C-terminal tip of CIP2A and phosphorylate its penultimate residue Ser904.[11] We hypothesized that phosphorylation of Ser904 could create a C-terminal binding site for the regulatory proteins 14-3-3, which act as molecular scaffolds in the cell through regulation of protein–protein interactions (PPIs) in key cellular processes. A unique feature of a subset of C-terminal 14-3-3 interactions is that they can be targeted by the diterpene glucoside Fusicoccin-A (FC-A) for PPI stabilization.[12],[13] In several studies, FC-A and its d ...

CIP2A / 14-3-3 = assay: GST14-3-3η pulldown of CIP2A from FC-A treated MDA-MB-468 cells; type: cell-based; settings: cells treated with 30 μM FC-A 24 h vs control; two independent experiments
Experimental: as §1, with “experiments. […]” for “experiments.”

ERα = settings: cited from earlier work
CIP2A Ser904 = type: cell-based
Experimental: as §1, with “experiments. […]” for “experiments.”

CIP2A = type: cell-based
Experimental: as §1, with “experiments. […]” for “experiments.”

14-3-3η/pCIP2A complex = assay: Fluorescent polarization, FC-A stabilization of 14-3-3η/pCIP2A; parameters: species or system Hs; settings: FP, FC-A titrated to 100 nM peptide 3 and 1.5 μM GST14-3-3η (legend; SI: 4.7 μM); PBS, RT, 30 min; mean of three independent experiments; read-out: EC50 (FC-A enhancing binding of 14-3-3η to pCIP2A)
Description: Figure 1 The C-terminus of CIP2A contains a mode-III 14-3-3 binding motif. (A) CIP2A’s C-terminus overlaid with 14-3-3 mode-III binding motif. The putative phosphosite is highlighted red with an alignment of the C-terminal amino acid sequence of CIP2A from different species shown below. (B) Chemical structure of Fusicoccin-A. (C) Overview of N-terminally biotinylated or fluorescein labeled CIP2A peptides either non- or phosphorylated on Ser904. (D) Homogeneous time-resolved FRET (HTRF) assay in which an N-terminally GST tagged 14-3-3η is targeted with an anti-GST europium (Eu) cryptate labeled monoclonal antibody and CIP2A peptides 1 and 2 used are N-terminally biotinylated and labeled with streptavidin conjugated to XL665. Concentration–response curves are shown for peptide 1 (Ser904) and peptide 2 (pSer904) in the presence or absence of a fixed 10 μM FC-A and 10 nM GST14-3-3η. Data is shown as mean ± SEM of three independent experiments. […]
FC-A beads were produced in a two-step reaction as previously described by Feyerabend and Weiler, 1987 by first generating FC-aldehyde (FC-Ald) which, was subsequently coupled to magnetic hydrazide beads (Chemicell, Cat#1404). […] Before coupling to magnetic hydrazide beads reaction efficiency was determined by HPLC analysis. […]

H^+-ATPase = settings: 14-3-3/FC-A; cited from earlier work
[2] = molecular target: T2, 14-3-3η (N-terminally GST tagged) (Homo sapiens, UniProt Q04917); assay: HTRF assay of CIP2A C-terminal peptides with GST14-3-3η; type: binding, Hs; settings: HTRF concentration–response, nonphosphorylated peptide; 10 nM GST14-3-3η; presence or absence of 10 μM FC-A
T2 construct: made in house; host or cells: Rosetta 2 (DE3)pLysS E. coli
T2 sequence (Q04917 1-246): T1 sequence (Q04917 1-246)
Description: Therefore, using (non)phosphorylated C-terminal CIP2A peptides, we investigated whether 14-3-3 could directly interact with CIP2A (Figure 1C). First, we developed a homogeneous time-resolved FRET (HTRF) assay for this putative interaction and its phosphorylation dependence (Figure 1D). […] Europium is excited at a wavelength of 337 nm resulting in emission at a wavelength of 620 nm. If 14-3-3 interacts with the CIP2A peptide, resonance energy transfer can occur resulting in excitation and emission of XL665 at a wavelength of 665 nm.
Data is shown as mean ± SEM of three independent experiments. […] Data is presented as the mean ± SEM of three independent experiments.

Compound: Nc1ncnc2c1ncn2[C@@H]1O[C@H](COP(=O)(O)OP(=O)(O)OP(=O)(O)O)[C@@H](O)[C@H]1O [ATP]
- effect on CIP2A pulldown by GST-14-3-3η (GST-14-3-3η / CIP2A): more CIP2A was identified in pulldown samples

Compound: CC[C@H](C)[C@H](NC(=O)[C@H](COP(=O)(O)O)NC(=O)[C@H](CC(C)C)NC(=O)[C@H](CC(N)=O)NC(=O)[C@@H](NC(=O)[C@@H](NC(=O)[C@H](CCC(=O)O)NC(=O)[C@@H]1CCCN1C(=O)[C@H](CC(N)=O)NC(=O)[C@@H](NC(=O)c1ccc2c(c1)C(=O)OC21c2ccc(O)cc2Oc2cc(O)ccc21)[C@@H](C)CC)[C@@H](C)O)C(C)C)C(=O)O [FAM-pCIP2A peptide]
- pEC50 (GST-14-3-3η; buffer / DMSO control, read-out: EC50): 3.93
- pEC50 (GST-14-3-3η; fixed 10 μM FC-A, read-out: EC50 (shift in presence of FC-A)): 5.56

Compound: C=CC(C)(C)OC[C@H]1O[C@H](O[C@@H]2C3=C([C@H](C)COC(C)=O)C[C@H](O)[C@]3(C)/C=C3/[C@@H](COC)CC[C@H]3[C@@H](C)[C@H]2O)[C@H](O)[C@@H](OC(C)=O)[C@@H]1O [FC-A, Fusicoccin-A]
- antiproliferative effects [1]: antiproliferative effects in cancer cells, including breast cancer
- CIP2A in GST-14-3-3η pulldown (CIP2A / 14-3-3): more CIP2A could be detected in these samples compared to control cell lysates
- effect on detection of C-terminal phosphorylation of ERα (ERα; MCF-7 cells treated with FC-A): necessary to detect C-terminal phosphorylation of the ERα
- Fold Change (Norm. to CTL): CIP2A pS904 (CIP2A Ser904): 2.55
- effect on Ser904 phosphorylation levels (CIP2A Ser904; FC-A 24 h, MDA-MB-468): Ser904 phosphorylation levels were enhanced
- Fold Change (Norm. to CTL): CIP2A Tot. (CIP2A): 0.79
- effect on total CIP2A in presence of cycloheximide (CIP2A; 30 μM FC-A with 100 µg/mL cycloheximide, 24 h, MDA-MB-468, three independent experiments): no changes in total CIP2A over a 24 h period
- effect on total CIP2A (CIP2A; FC-A 24 h, MDA-MB-468): did not affect total CIP2A
- pEC50 (14-3-3η/pCIP2A complex): 4.93
- protection of penultimate C-terminal phosphorylation site (H^+-ATPase): shields the penultimate C-terminal phosphorylation site from phosphatases

Compound: CC(C)C[C@@H](C=O)NC(=O)[C@H](CC(C)C)NC(=O)[C@H](CC(C)C)NC(=O)OCc1ccccc1 [MG132] (Cbz-Leu-Leu-Leu-aldehyde)
- effect on phosphorylation of ERα C-terminal tip (ERα; proteasome inhibitor MG132, in addition to FC-A): additional requirement for phosphorylation of the C-terminal tip

Compound: Bio-LSSGGKINPETVNL-S^904-I-COOH [peptide 1, N-terminally biotinylated nonphosphorylated C-terminal CIP2A peptide]
- interaction with 14-3-3 [2]: does not interact with 14-3-3
